This is an account of results in article PMC12560079, “Cytotoxic Triterpene Glycosides from Mexican Sea Cucumber Holothuria inornata” (Journal of Natural Products, 2025).

Data set [1] has as its system cancer cell lines U251, PC-3, K562, HCT-15, MCF-7, SKLU-1. Kind of data set: SRB cytotoxicity assay, panel of six cancer cell lines. The class given is cell-based, human. The conditions noted are these: for growth inhibition (cytotoxic activity) of cancer cell lines: 25 μg/mL, six cell lines, result in words (Figure 1). On the procedure: (§1) Cytotoxicity was evaluated based on the percentage of cell growth inhibition. The cancer cell lines were obtained from the National Cancer Institute (NCI, Bethesda, MD). The study utilized human cancer cell lines derived from central nervous system glia (U251), prostate (PC-3), leukemia (K562), colon (HCT-15), breast (MCF-7), and lung (SKLU). Each cell line was maintained in RPMI 1640 medium supplemented with fetal bovine serum (10%), L-glutamate (2.0 mM), 10,000 units/mL penicillin G, […] streptomycin sulfate, 25 mg/mL amphotericin B and 1% nonessential amino acids. Cytotoxicity was assessed by treating cancerous cells with the extract, the saponin fraction, and the major isolated compounds, all of which were solubilized in ultrapure water (18.2 MΩ) and tested at a concentration of 25 μg/mL. For the determination of IC50 values, the same cancer cell lines were evaluated and had the same treatment, while the range of concentrations was 25, 12.5, 6.5, 5.0, 2.5, and 1.25 μg/mL in triplicate wells for each concentration; commercially formulated mitoxantrone, used as a water-soluble chemotherapeutic drug, was used as a positive control, and ultrapure water was used as a negative control. The resulting data obtained from the assay for each cell line were analyzed using nonlinear regression to calculate IC50 using GraphPad Prism 10.5.0 (San Diego, CA, USA). The percentage of cell growth inhibition was determined by using the protein-binding dye sulforhodamine B (SRB) in a microculture assay. Cells were harvested from culture flasks and seeded into 96-well plates at a density of 5,000 to 10,000 cells per well, maintaining the same temperature and humidity conditions as during culture incubation. The test compounds were then added, and cells were exposed for 48 h. After incubation, cells were fixed in situ by adding 50 μL of cold 50% trichloroacetic acid and incubating at 4 °C for 1 h. The plates were then washed with Milli-Q water, air-dried at room temperature, and stained with a 0.4% SRB solution. Excess SRB was removed by washing with 1% aqueous acetic acid. The plates were air-dried, and the bound dye was solubilized with 100 μL of a 10 mM unbuffered Tris base. The plates were then shaken for 10 min, and absorbance was measured at 515 nm using a microplate spectrophotometer.
A general note: In SRB staining, fixed cells bind dye roughly in proportion to their protein.

For data set [2], the system named is human prostatic adenocarcinoma (PC-3). Kind of data set: SRB cytotoxicity assay, PC-3. In kind it is cell-based. As to conditions: SRB method, 48 h exposure, ± SD, read-out: Cell Line IC50 PC-3. On the procedure: as §1, with “The plates were then washed with Milli-Q water, air-dried at room temperature, and stained with a 0.4% SRB solution. Excess SRB was removed by washing with 1% aqueous acetic acid. The plates were air-dried, and the bound dye was solubilized with 100 μL of a 10 mM unbuffered Tris base.” left out

Data set [3] relates to human colorectal adenocarcinoma (HCT-15). As to the kind of experiment: SRB cytotoxicity assay, HCT-15. In kind it is cell-based. As to conditions: SRB method, 48 h exposure, ± SD, read-out: Cell Line IC50 HCT-15. The method, then: as §1, with “The plates were then washed with Milli-Q water, air-dried at room temperature, and stained with a 0.4% SRB solution. Excess SRB was removed by washing with 1% aqueous acetic acid. The plates were air-dried, and the bound dye was solubilized with 100 μL of a 10 mM unbuffered Tris base.” left out

In data set [4] the test system is human lung adenocarcinoma (SKLU-1). Kind of data set: SRB cytotoxicity assay, SKLU-1. In kind it is cell-based. As to conditions: SK-LU-1, SRB method, 48 h exposure, ± SD, read-out: Cell Line IC50 SKLU-1. On the procedure:
as §1, with “The plates were then washed with Milli-Q water, air-dried at room temperature, and stained with a 0.4% SRB solution. Excess SRB was removed by washing with 1% aqueous acetic acid. The plates were air-dried, and the bound dye was solubilized with 100 μL of a 10 mM unbuffered Tris base.” left out

The subject of data set [5] is human glioblastoma (U251). As to the kind of experiment: SRB cytotoxicity assay, U251. The class given is cell-based. The conditions noted are these: U-251, SRB method, 48 h exposure, ± SD, read-out: Cell Line IC50 U251. On the procedure:
as §1, with “The plates were then washed with Milli-Q water, air-dried at room temperature, and stained with a 0.4% SRB solution. Excess SRB was removed by washing with 1% aqueous acetic acid. The plates were air-dried, and the bound dye was solubilized with 100 μL of a 10 mM unbuffered Tris base.” left out

Data set [6] concerns human mammary adenocarcinoma (MCF-7). Kind of data set: SRB cytotoxicity assay, MCF-7. The class given is cell-based. As to conditions: MCF7, SRB method, 48 h exposure, ± SD, read-out: Cell Line IC50 MCF-7. On the procedure:
as §1, with “The plates were then washed with Milli-Q water, air-dried at room temperature, and stained with a 0.4% SRB solution. Excess SRB was removed by washing with 1% aqueous acetic acid. The plates were air-dried, and the bound dye was solubilized with 100 μL of a 10 mM unbuffered Tris base.” left out

In data set [7] the test system is human chronic myelogenous leukemia (K562). Kind of data set: SRB cytotoxicity assay, K562. In kind it is cell-based. The conditions noted are these: SRB method, 48 h exposure, ± SD, read-out: Cell Line IC50 K562. On the procedure:
as §1, with “The plates were then washed with Milli-Q water, air-dried at room temperature, and stained with a 0.4% SRB solution. Excess SRB was removed by washing with 1% aqueous acetic acid. The plates were air-dried, and the bound dye was solubilized with 100 μL of a 10 mM unbuffered Tris base.” left out

The mark [8] stands for this setting: Homo sapiens, span over the evaluated cell lines, SRB method, read-out: IC50 values across the tested cancer cell lines.

Where two headings read alike, the source gives them in different places.

In the case of `CC1OC(OC2C(OC3CCC4(C)C5=CC(O)C67C(=O)OC(C)(C8CCC(C)(C)O8)C6(O)CCC7(C)C5CCC4C3(C)C)OCC(OS(=O)(=O)O)C2O)C(O)C(O)C1O` (centres unmarked) [holothurin B (7), holothurin B], the “growth inhibition (cytotoxic activity) of cancer cell lines” value (“growth inhibition (cytotoxic activity)” below) in data set [1] (SRB method) is recorded as “did not exhibit high sensitivity”.

The IC50 is the concentration that gives 50% inhibition. Regarding `COC1C(O)C(CO)OC(OC2C(O)C(CO)OC(OC3C(C)OC(OC4C(OC5CCC6(C)C7=CC(O)C89C(=O)OC(C)(CCCC(C)(C)OC(C)=O)C8(O)CCC9(C)C7CCC6C5(C)C)OCC(OS(=O)(=O)O)C4O)C(O)C3O)C2O)C1O` [Inornatoside B (2), 25-acetoxy-3-O-(3-O-methyl-β-D-glucopyranosyl-(1→3)-β-D-glucopyranosyl-(1→4)-β-D-quinovopyranosyl-(1→2)-4-O-sodiumsulfate-β-D-xylopyranoside)-holost-9(11)-ene-3β,12α,17α-triol], the IC50 worked out at 490 ± 10 nM in data set [2]; 1040 ± 10 nM in data set [3]; 500 ± 10 nM in data set [4]; 540 ± 10 nM in data set [5]; 470 ± 40 nM in data set [6]; 480 ± 10 nM in data set [7]. Moreover, the IC50 in data set [1] (Homo sapiens, span over MCF-7 and SKLU-1 cell lines, read-out: IC50 values against MCF-7 and SKLU-1) is 470 to 500 nM; in data set [1] (setting [8]) it was 470 to 1040 nM; in data set [1] (span over the evaluated cell lines, SRB method, read-out: IC50 values across the tested cancer cell lines), approximately 500 nM. Besides, in data set [1] (SRB method), the “growth inhibition (cytotoxic activity)” value is “significantly more active than holothurin B (7)”.

As to `O=C1c2c(O)ccc(O)c2C(=O)c2c(NCCNCCO)ccc(NCCNCCO)c21` [Mitoxantrone, reference compound], the IC50 in data set [2] is 630 ± 40 nM; in data set [3], 750 ± 40 nM; in data set [4], 1160 ± 150 nM; in data set [5], 550 ± 40 nM; in data set [6], 720 ± 10 nM; in data set [7], 650 ± 20 nM. The half-maximal inhibitory concentration (IC50) in data set [1] (setting [8]) lay in the range of 550 to 1160 nM.

Regarding `CC(=O)OC(C)(C)CCCC1(C)OC(=O)C23C(O)C=C4C(CCC5C4(C)CCC(OC4OCC(OS(=O)(=O)O)C(O)C4OC4OC(C)C(O)C(O)C4O)C5(C)C)C2(C)CCC13O` [Inornatoside A (1), 25-acetoxy-3-O-(β-D-quinovopyranosyl-(1→2)-4-O-sodiumsulfate-β-D-xylopyranoside)-holost-9(11)-ene-3β,12α,17α-triol], the IC50 in data set [2] is 5350 ± 10 nM; in data set [3], 4690 ± 10 nM; in data set [4], 3650 ± 20 nM; in data set [5] it was 3530 ± 130 nM; in data set [6], more than 50000 nM; in data set [7], 4240 ± 20 nM. Moreover, in data set [1] (setting [8]), the IC50 lay in the range of 3530 to 5350 nM. Besides, the “growth inhibition (cytotoxic activity)” value in data set [1] (SRB method) is given as “significantly more active than holothurin B (7)”.
